Measured values published in patent US11365194B2, “Analgesic drug using PAC1 receptor antagonistic drug” (KAGOSHIMA UNIVERSITY, priority 2017, dated 2022).

Assays:
[1] = Non Patent Literature 4; cited from earlier work
PAC1 receptor = target: T1, PAC1 receptor (Homo sapiens, UniProt P41586); details: Non Patent Literature 3; cited from earlier work
T1 sequence (P41586 21-468): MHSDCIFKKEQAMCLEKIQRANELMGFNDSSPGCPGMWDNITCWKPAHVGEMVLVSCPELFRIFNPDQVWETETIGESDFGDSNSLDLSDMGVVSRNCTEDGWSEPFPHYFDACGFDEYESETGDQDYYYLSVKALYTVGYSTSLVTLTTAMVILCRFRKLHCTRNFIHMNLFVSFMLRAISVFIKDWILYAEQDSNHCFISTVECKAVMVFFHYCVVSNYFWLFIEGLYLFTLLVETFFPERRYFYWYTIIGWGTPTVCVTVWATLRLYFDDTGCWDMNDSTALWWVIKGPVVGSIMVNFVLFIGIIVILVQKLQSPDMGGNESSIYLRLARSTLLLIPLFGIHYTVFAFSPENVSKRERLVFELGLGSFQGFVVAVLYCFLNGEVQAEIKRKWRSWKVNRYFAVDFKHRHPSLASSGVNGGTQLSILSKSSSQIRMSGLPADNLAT

[2] = tested on: mechanical allodynia induced by PACAP intrathecal administration; experiment: Mechanical allodynia induced by PACAP intrathecal administration (von Frey test); assay type: in vivo, mouse; details: simultaneous i.t.
Description: When single i.t. administration of PACAP (100 pmol/5 L) to mouse was performed, mechanical stimulus sensitive phenomenon (mechanical allodynia) occurred over a long period of time (for at least three months after the administration) (Non Patent Literature 1). […] The mechanical sensitive phenomenon induced by PACAP was not suppressed in an example in which a solvent (VEH: 0.2% DMSO-containing artificial cerebrospinal fluid) was used instead of the compounds.
(§1) Male ddY mice (6 to 12 weeks old) were used, and the threshold to a mechanical stimulus was evaluated by the vonFrey test. Specifically, the 50% withdrawal reflex threshold (Threshold) was calculated in accordance with the method of Chaplan et al. (Chaplan et al., J. Neurosci. Meth. 53, 55-63, 1994). Each compound was dissolved in 99.7% DMSO, and then the resulting solution was diluted with an artificial cerebrospinal fluid for preparation (final concentration of DMSO was 0.2%).

[3] = tested on: mechanical allodynia induced by spinal nerve injury; experiment: Spinal nerve ligation (SNL) model, i.t. administration on 14th day, mechanical allodynia; assay type: in vivo, mouse; details: for anti-mechanical allodynia effect: 100 pmol i.t. on 14th day after operation
Description: as §1
Spinal nerve ligation (SNL) models in which the fourth lumbar cord spinal nerves of male ddY (6 to 12 weeks old) were ligated with silk thread were used. The i.t. administration of a solvent (VEH: 10% DMSO-containing saline), PA-8, the compound 2j or the compound 2o (FIG. 9A), or PA-9 or the compound 3d (FIG. 9B) was performed on the 14th day after the operation. The method of causing a mechanical stimulus is the same as that of Example 5, and data were acquired for 24 hours after i.t. administration over time.

[4] = target: T2, mouse PAC receptor-expressing CHO cell (PAC1/CHO cell) (Mus musculus, UniProt P70205); experiment: CREB phosphorylation by PACAP stimulus, Western blot, PAC1/CHO cell; assay type: cell-based; details: for suppression of CREB phosphorylation by PACAP (1 nM): PAC1/CHO cell, compound 10 μM to 10 nM, 30 minutes before 1 nM PACAP; for effect of suppressing CREB phosphorylation compared with basic compound: at 1 nM, 2o versus PA-8, 3d versus PA-9, FIG. 3
T2 construct: expressed in transfected cells; host or cells: CHO cells
T2 sequence (P70205 21-496): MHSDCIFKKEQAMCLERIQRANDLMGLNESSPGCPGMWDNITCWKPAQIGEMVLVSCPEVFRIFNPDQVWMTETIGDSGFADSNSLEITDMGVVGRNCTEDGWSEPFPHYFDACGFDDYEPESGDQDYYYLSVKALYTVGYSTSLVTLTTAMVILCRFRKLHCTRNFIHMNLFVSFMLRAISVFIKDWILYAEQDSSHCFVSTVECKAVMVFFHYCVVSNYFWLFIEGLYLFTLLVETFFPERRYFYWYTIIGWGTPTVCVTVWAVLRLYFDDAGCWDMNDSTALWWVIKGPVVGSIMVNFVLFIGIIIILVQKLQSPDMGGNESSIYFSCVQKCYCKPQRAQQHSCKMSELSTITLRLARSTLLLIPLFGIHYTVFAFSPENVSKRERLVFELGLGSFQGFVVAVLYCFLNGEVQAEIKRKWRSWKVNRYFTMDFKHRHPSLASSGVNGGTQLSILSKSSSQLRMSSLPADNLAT
Description: The effect of each compound on the phosphorylation of CREB (cAMP-responsive element-binding protein) produced by a PACAP stimulus was examined by Western blot analysis using an anti-phosphorylated CREB (pCREB) antibody with a mouse PAC receptor-expressing CHO cell (PAC1/CHO cell) and a mouse VPAC1 receptor-expressing CHO cell (VPAC1/CHO cell).
Specifically, treatment with a compound (PA-8, PA-9, compounds 2j, 20 and 3d) at 10 μM to 10 nM or a solvent therefor (VEH: 0.1% DMSO-containing phosphate buffer solution) was performed for 30 minutes, 1 nM PACAP was then added, and protein was recovered within 30 minutes after a PACAP stimulus.

[5] = tested on: cold allodynia induced by oxaliplatin; experiment: Cold allodynia induced by oxaliplatin, drug on fourth day after oxaliplatin (acetone test); assay type: in vivo, mouse; details: 10 mg/kg, single oral administration; for suppression of cold allodynia by oxaliplatin: fourth day after oxaliplatin
Description: Oxaliplatin was dissolved in 5% glucose-containing saline and intraperitoneally administered at a dose of 2 mg/kg. A drug was administered on the fourth day after oxaliplatin administration. Male ddY mice (6 to 12 weeks old) were used. The axis of ordinates is the duration of the behavior of licking and paw waving after the application of an acetone drop (10 L) to the footpad of a hind paw.

[6] = tested on: spontaneous pain-like behavior induced by PACAP intrathecal administration; experiment: Spontaneous pain-like behavior induced by PACAP intrathecal administration; assay type: in vivo, mouse; details: for suppression of PACAP-induced spontaneous pain-like behavior: simultaneous i.t. with PACAP (100 pmol), counted for 30 minutes
Description: When PACAP (100 pmol/5 L) is intrathecally administered to a mouse in a single dose (single i.t. injection), spontaneous pain-like behavior in which the mouse licks or bites the rear half of the body occurs about 5 minutes after the administration (and continues for several hours) (Ohnou et al. J. Pharmacol. Sci. 130, 194-203, 2016). […] Male ddY mice (6 to 12 weeks old) were used, and the behaviors were taken on video. The number of times of spontaneous pain-like behaviors for 30 minutes after the administration was counted.

[7] = tested on: cold allodynia induced by oxaliplatin; experiment: Onset of cold allodynia induced by oxaliplatin, drug given around oxaliplatin administration; assay type: in vivo, mouse; details: 10 mg/kg oral
Description: Oxaliplatin was dissolved in 5% glucose-containing saline and intraperitoneally administered at a dose of 2 mg/kg. Drug administration (oral administration) was performed 30 minutes before oxaliplatin administration (FIG. 7A); or 3 times: 30 minutes before oxaliplatin administration, 2.5 hours after the administration, and 5.5 hours after the administration (FIG. 7B). Male ddY mice (6 to 12 weeks old) were used. The axis of ordinates is the duration of the behavior of licking and paw waving after the application of an acetone drop (10 μL) to the footpad of a hind paw.

[8] = tested on: pain-like behavior induced by formalin; experiment: Pain-like behavior induced by formalin; assay type: in vivo, mouse; details: 0.1 to 10 nmol i.t.
Description: The first phase is direct action of formalin on sensory nerves (to around 10 minutes after formalin administration). In the second phase (from around 10 minutes to 60 minutes after formalin administration), hypersensitization formed in spinal dorsal horn cells during the first phase (a type of plastic phenomenon in the nervous system also called central sensitization) is a main cause, and inflammatory reaction at the site of formalin administration contributes importantly.

[9] = tested on: mechanical allodynia induced by spinal nerve injury; experiment: Spinal nerve ligation (SNL) model, repeated intraperitoneal administration, mechanical allodynia; assay type: in vivo, mouse; details: for suppression of the onset of mechanical allodynia: 30 mg/kg i.p. before ligation and once a day for 7 days
Description: as §1
Spinal nerve ligation (SNL) models in which the fourth lumbar cord spinal nerves of male ddY (6 to 12 weeks old) were ligated with silk thread were used. A solvent (VEH: 10% DMSO-containing saline). PA-8, the compound 2j or the compound 20 was intraperitoneally administered (30 mg/kg) 5 to 10 minutes before the ligation, and once a day for 7 days thereafter. The method of causing a mechanical stimulus is the same as that of Example 5, and data from the first day after the ligation (D1) are data 1 hour after the administration of VEH or the drugs.

[10] = 30 minutes before oxaliplatin or 3 administrations

Row | Compound | suppression of long-term mechanical allodynia induced by PACAP ([2]; 100 pmol, FIG. 5C) | mechanical threshold 24 hours after the administration ([3]; 100 pmol i.t.) | anti-mechanical allodynia effect [3] | suppression of CREB phosphorylation by PACAP (1 nM) [4] | suppression of cold allodynia by oxaliplatin [5] | suppression of PACAP-induced spontaneous pain-like behavior ([6]; 10 pmol) | suppression of PACAP-induced spontaneous pain-like behavior ([6]; 100 pmol) | suppression of the onset of cold allodynia by oxaliplatin [7, 10] | effect on first phase reaction [8] | effect on second phase reaction [8] | suppression of long-term mechanical allodynia induced by PACAP ([2]; 10 or 100 pmol, FIGS. 5A and B) | suppression of the onset of mechanical allodynia [9] | effect of suppressing CREB phosphorylation compared with basic compound [4] | also measured
1 | O=C(NCCc1c[nH]cn1)C1CC(=O)N(c2n[nH]c3ccccc23)C1 (centres unmarked) [PA-9, reference compound] | strongly suppressed | maintained the mechanical threshold highly significantly | anti-mechanical allodynia effect equivalent to PA-8 and the compound 2j | suppressed CREB phosphorylation by PACAP (1 nM) depending on the concentration | – | – | – | – | – | – | – | – | – | analgesic effect [1]: have analgesic effect; PAC1 receptor antagonistic action (PAC1 receptor): have PAC1 receptor antagonistic action
2 | CCOc1cccc(C2CC(=O)Nc3nc(N)[nH]c(=O)c32)c1 (centres unmarked) [compound 2j, 2-Amino-5-(3-ethoxyphenyl)-5,8-dihydro-3H,6H-pyrido[2,3-d]pyrimidine-4,7-dione] | – | – | suppressed the onset of mechanical allodynia significantly | suppressed depending on the concentration | suppressed cold allodynia by oxaliplatin significantly over 4 to 5 hours | suppressed the PACAP response significantly | suppressed the PACAP response significantly | suppressed the onset of cold allodynia by oxaliplatin significantly | did not affect the first phase reaction | did not affect the second phase reaction | strongly suppressed | did not suppress the onset of mechanical allodynia | – | effect on PACAP response compared with PA-8 ([6]; 10 pmol i.t., versus PA-8 10 pmol): significantly stronger than that of PA-8 (10 pmol); maximum effect compared with compound 2o ([3]; 100 pmol i.t., 3 hours after the administration): significantly inferior as compared with the compound 2o
3 | Nc1nc2c(c(=O)[nH]1)C(c1cccc(OC(F)(F)F)c1)CC(=O)N2 (centres unmarked) [compound 2o, 2-Amino-5-(3-trifluoromethoxyphenyl)-5,8-dihydro-3H,6H-pyrido[2,3-d]pyrimidine-4,7-dione] | – | – | suppressed the onset of mechanical allodynia significantly | suppressed CREB phosphorylation by PACAP (1 nM) | suppressed cold allodynia by oxaliplatin significantly over 4 to 5 hours | did not exhibit a significant suppressing effect | suppressing effect equivalent to PA-8 and the compound 2j | suppressed the onset of cold allodynia by oxaliplatin significantly | did not affect the first phase reaction | suppressed the second phase reaction significantly depending on the concentration | strongly suppressed | suppressed the onset of mechanical allodynia still more strongly | significantly stronger effect of suppressing CREB phosphorylation | time of onset of effect on cold allodynia [5]: effective from an earlier period of time (the first hour after administration); suppression of the onset of cold allodynia by oxaliplatin ([7]; three administrations (FIG. 7B)): suppressed the onset almost completely; mechanical threshold level during administration ([9]; 30 mg/kg i.p. once a day): maintained the mechanical threshold at a level equivalent to an uninjured side; mechanical threshold after discontinuation of administration ([9]; 30 mg/kg i.p., discontinued on the seventh day, versus VEH group): maintained the mechanical threshold highly significantly for at least 7 days thereafter
4 | O=C(NCCc1c[nH]cn1)C1CC(=O)N(c2n[nH]c3c(Cl)cccc23)C1 (centres unmarked) [compound 3d, N-[2-(1H-imidazol-4-yl)ethyl]-1-(7-chloro-1H-indazol-3-yl)-5-oxo-3-pyrrolidinecarboxamide] | strongly suppressed | maintained the mechanical threshold highly significantly | anti-mechanical allodynia effect equivalent to PA-8 and the compound 2j | suppressed CREB phosphorylation by PACAP (1 nM) depending on the concentration | – | – | – | – | – | – | – | – | significantly stronger effect of suppressing CREB phosphorylation | –
